Like-named read-outs stand apart in the source and are kept apart here.
Experiments:
Experiment in all cases: CDK inhibition assay (microfluidic LabChip, IC50 format)
CDK9-CYCLINT1 = target: T1, CDK9-CYCLINT1 (Homo sapiens, UniProt P50750); assay type: biochemical; conditions: read-out: CDK9 CyclinT1 IC50
T1 construct: purchased Carna

CDK7 CyclinH = CDK7 CyclinH (Homo sapiens, UniProt P50613); assay type: biochemical
CDK4-CYCLIND1 = CDK4-CYCLIND1 (Homo sapiens, UniProt P11802)
CDK1/B = CDK1/B (Homo sapiens, UniProt P06493); assay type: biochemical
CDK2-CYCLINA = target: T2, CDK2-CYCLINA (Homo sapiens, UniProt P24941); assay type: biochemical
T2 construct: purchased Millipore

CDK2-CYCLINE = target: T3, CDK2-CYCLINE (Homo sapiens, UniProt P24941); assay type: biochemical; conditions: Table 3; purified enantiomers; read-out: CDK2-E (E1/E2)
T3 construct: purchased Millipore

CDK6-CYCLIND3 = target: T4, CDK6-CYCLIND3 (Homo sapiens, UniProt Q00534); assay type: biochemical; conditions: Table 3; purified enantiomers; read-out: CDK6 (E1/E2)
T4 construct: purchased Carna

[1] = CDK4 CyclinD1 IC50, Table 4b, lower part, a second value in parentheses for some compounds
[2] = Table 4b, lower part, read-out: CDK2 CyclinA IC50
[3] = CDK4 CyclinD1 IC50, Table 4a, a second value in parentheses for some compounds
[4] = Table 4a, read-out: CDK2 CyclinA IC50

Chain of CDK4-CYCLIND1 (P11802 whole entry): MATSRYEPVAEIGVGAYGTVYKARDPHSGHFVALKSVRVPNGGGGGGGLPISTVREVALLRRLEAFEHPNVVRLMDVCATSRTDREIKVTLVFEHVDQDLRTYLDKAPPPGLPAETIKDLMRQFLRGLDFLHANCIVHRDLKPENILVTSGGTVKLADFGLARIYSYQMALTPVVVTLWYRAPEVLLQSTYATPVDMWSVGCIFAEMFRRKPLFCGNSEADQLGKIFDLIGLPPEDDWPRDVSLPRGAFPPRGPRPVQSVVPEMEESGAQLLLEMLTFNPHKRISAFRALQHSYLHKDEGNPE
Chain of CDK4-CYCLIND1 (P24385 whole entry partner): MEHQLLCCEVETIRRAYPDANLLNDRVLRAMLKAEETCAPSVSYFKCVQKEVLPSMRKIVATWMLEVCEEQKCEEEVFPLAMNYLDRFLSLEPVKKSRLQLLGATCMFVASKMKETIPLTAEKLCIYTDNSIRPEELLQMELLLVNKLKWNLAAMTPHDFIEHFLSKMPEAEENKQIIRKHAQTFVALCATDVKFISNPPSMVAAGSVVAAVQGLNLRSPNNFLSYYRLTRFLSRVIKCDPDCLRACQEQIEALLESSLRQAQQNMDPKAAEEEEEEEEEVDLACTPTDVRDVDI
Chain of CDK1/B (P06493 whole entry, species assumed): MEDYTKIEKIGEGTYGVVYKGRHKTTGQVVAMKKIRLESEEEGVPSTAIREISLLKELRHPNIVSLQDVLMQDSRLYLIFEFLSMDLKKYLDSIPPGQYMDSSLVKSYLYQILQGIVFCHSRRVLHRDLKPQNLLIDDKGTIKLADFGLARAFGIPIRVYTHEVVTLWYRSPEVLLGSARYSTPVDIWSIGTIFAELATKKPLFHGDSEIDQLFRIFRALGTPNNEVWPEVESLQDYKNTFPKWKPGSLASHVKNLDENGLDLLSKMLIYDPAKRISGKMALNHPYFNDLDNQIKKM
Chain of CDK1/B (P14635 whole entry partner, species assumed): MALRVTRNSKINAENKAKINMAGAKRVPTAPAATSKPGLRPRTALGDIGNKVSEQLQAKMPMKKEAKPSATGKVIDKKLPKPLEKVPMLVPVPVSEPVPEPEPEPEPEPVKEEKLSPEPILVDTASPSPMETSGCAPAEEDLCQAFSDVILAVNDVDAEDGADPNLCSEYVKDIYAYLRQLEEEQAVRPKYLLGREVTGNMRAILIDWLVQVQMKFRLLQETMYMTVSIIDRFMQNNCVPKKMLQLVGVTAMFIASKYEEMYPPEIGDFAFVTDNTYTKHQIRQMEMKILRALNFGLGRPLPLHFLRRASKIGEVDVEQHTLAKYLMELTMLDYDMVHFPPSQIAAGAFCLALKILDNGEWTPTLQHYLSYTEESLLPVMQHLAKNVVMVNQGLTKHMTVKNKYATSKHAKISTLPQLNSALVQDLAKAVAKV
Chain of CDK7 CyclinH (P50613 whole entry): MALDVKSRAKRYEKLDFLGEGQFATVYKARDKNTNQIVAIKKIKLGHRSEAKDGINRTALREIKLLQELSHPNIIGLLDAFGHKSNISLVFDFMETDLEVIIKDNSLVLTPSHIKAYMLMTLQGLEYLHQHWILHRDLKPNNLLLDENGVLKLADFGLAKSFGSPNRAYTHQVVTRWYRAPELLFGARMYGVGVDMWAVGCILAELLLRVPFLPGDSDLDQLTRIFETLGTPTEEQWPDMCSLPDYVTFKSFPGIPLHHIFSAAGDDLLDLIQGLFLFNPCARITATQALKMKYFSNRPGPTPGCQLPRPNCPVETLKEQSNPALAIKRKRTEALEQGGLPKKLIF
Chain of CDK7 CyclinH (P51946 whole entry partner): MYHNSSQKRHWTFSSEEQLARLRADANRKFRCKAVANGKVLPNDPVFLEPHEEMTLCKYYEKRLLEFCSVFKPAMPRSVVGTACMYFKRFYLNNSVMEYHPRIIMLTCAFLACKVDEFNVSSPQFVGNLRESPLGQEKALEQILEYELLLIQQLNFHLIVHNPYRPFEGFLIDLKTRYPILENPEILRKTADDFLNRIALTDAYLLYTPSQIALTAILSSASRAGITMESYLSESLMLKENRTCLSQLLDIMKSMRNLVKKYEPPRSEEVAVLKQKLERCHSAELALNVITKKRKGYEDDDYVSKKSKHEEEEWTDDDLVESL
Chain of CDK7 CyclinH (P51948 whole entry partner): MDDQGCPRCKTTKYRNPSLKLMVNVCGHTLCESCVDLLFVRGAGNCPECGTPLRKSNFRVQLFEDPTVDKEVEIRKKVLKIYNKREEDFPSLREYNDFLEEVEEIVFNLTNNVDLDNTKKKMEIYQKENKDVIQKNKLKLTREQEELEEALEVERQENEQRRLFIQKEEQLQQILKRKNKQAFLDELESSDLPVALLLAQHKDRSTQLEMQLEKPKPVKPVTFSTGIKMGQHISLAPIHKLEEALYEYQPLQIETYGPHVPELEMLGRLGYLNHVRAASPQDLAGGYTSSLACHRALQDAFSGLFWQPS
T1 sequence (P50750 whole entry): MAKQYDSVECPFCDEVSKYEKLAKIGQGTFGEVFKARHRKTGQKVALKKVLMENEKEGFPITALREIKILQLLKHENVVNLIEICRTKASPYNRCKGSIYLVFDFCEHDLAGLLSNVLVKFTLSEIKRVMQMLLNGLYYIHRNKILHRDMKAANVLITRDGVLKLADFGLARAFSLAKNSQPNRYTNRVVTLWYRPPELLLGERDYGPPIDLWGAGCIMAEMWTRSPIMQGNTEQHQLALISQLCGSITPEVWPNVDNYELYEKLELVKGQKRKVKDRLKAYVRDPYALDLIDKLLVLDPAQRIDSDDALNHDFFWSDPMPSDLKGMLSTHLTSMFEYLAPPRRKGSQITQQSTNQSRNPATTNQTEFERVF
T1 sequence (O60563 whole entry partner): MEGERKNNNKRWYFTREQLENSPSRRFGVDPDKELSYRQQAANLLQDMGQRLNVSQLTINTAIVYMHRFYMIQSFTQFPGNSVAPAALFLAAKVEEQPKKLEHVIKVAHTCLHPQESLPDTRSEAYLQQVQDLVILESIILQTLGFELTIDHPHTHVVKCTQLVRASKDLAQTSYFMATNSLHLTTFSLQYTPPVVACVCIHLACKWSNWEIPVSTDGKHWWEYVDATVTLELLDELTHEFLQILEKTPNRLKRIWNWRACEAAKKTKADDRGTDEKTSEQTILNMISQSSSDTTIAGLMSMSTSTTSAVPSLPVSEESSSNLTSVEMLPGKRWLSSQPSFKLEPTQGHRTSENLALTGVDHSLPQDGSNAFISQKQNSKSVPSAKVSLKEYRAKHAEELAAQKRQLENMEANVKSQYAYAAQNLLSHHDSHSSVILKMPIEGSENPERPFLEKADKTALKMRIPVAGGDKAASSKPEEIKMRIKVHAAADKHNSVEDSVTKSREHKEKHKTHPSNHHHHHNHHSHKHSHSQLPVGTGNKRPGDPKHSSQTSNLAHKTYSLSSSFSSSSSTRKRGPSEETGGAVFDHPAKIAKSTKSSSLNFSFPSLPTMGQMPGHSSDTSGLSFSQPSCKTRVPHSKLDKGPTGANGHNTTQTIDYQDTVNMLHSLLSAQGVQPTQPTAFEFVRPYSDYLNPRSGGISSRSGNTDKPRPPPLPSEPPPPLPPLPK
T4 sequence (Q00534 whole entry): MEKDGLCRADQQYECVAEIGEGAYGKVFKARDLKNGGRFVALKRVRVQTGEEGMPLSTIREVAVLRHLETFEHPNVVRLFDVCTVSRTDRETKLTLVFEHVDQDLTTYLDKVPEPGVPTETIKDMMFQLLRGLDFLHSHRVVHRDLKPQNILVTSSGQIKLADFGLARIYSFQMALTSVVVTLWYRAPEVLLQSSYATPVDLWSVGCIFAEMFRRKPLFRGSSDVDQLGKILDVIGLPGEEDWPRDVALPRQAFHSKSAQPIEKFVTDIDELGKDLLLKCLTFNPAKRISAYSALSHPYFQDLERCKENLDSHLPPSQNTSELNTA
T4 sequence (P30281 whole entry partner): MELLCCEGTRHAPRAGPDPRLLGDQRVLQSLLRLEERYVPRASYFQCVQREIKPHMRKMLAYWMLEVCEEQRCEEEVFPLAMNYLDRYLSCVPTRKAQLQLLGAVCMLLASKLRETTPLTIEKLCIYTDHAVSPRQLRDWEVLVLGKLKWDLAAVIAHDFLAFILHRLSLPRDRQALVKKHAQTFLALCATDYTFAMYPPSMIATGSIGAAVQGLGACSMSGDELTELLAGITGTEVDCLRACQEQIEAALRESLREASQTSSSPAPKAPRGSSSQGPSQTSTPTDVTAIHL

**Q.** With `CC(C)C1CCN(c2ccc(Nc3ncc4c(n3)N(C3CCCC3)C(=O)[C@]3(CCNC3=O)C4)cc2)CC1` [Example D201, (S)-8-cyclopentyl-2-((4-(4-isopropylpiperidin-1-yl)phenyl)amino)-5,8-dihydro-7H-spiro[pyrido[2,3-d]pyrimidine-6,3′-pyrrolidine]-2′,7-dione] as the compound, how does the IC50 (CDK9-CYCLINT1; Table 4b, lower part) read?
**A.** 0.00785 µM

**Q.** And the IC50 (CDK7 CyclinH; Table 4b, lower part)?
**A.** 2.97 µM

**Q.** What about the IC50 (CDK4-CYCLIND1; [1]) of the same compound?
**A.** 0.00504 µM

**Q.** And the IC50 (CDK1/B; Table 4b, lower part)?
**A.** 2.85 µM

**Q.** What about the IC50 (CDK2-CYCLINA; [2]) of the same compound?
**A.** 0.424 µM

**Q.** How did the IC50 (CDK9-CYCLINT1; Table 4a) turn out when `CN1CCN(C2CCN(c3ccc(Nc4ncc5c(n4)N(C4CCCC4)C(=O)[C@]4(CCNC4=O)C5)cc3F)CC2)CC1` [Example D105, (S)-8-cyclopentyl-2-((3-fluoro-4-(4-(4-methylpiperazin-1-yl)piperidin-1-yl)phenyl)amino)-5,8-dihydro-7H-spiro[pyrido[2,3-d]pyrimidine-6,3′-pyrrolidine]-2′,7-dione] was run?
**A.** < 0.0032 µM

**Q.** What about the IC50 (CDK7 CyclinH; Table 4a) of the same compound?
**A.** 0.134 µM

**Q.** And the IC50 (CDK4-CYCLIND1; [3])?
**A.** < 0.0032 µM

**Q.** What about the IC50 (CDK1/B; Table 4a) of the same compound?
**A.** 0.172 µM

**Q.** What about the IC50 (CDK2-CYCLINA; [4]) of the same compound?
**A.** 0.0545 µM

**Q.** Which IC50 (CDK9-CYCLINT1; Table 4a) does the source give for `CN(C)CCOc1ccc(Nc2ncc3c(n2)N(C2CCCC2)C(=O)[C@]2(CCNC2=O)C3)nc1` [Example D138, (S)-8-cyclopentyl-2-((5-(2-(dimethylamino)ethoxy)pyridin-2-yl)amino)-5,8-dihydro-7H-spiro[pyrido[2,3-d]pyrimidine-6,3′-pyrrolidine]-2′,7-dione] here?
**A.** 0.204 µM

**Q.** And the IC50 (CDK7 CyclinH; Table 4a)?
**A.** > 10 µM

**Q.** And the IC50 (CDK4-CYCLIND1; [3])?
**A.** 0.00458 µM

**Q.** And the IC50 (CDK1/B; Table 4a)?
**A.** > 10 µM

**Q.** What about the IC50 (CDK2-CYCLINA; [4]) of the same compound?
**A.** > 10 µM

**Q.** For `CC1CN(c2ccc(Nc3ncc4c(n3)N(C35CC(C3)C5)C(=O)[C@]3(CCNC3=O)C4)cc2)CC(C)N1` (stereo partly drawn) [Example D200, (6S)-8-(bicyclo[1.1.1]pentan-1-yl)-2-((4-(3,5-dimethylpiperazin-1-yl)phenyl)amino)-5,8-dihydro-7H-spiro[pyrido[2,3-d]pyrimidine-6,3′-pyrrolidine]-2′,7-dione], which IC50 (CDK9-CYCLINT1; Table 4b, lower part) is on record?
**A.** 0.0726 µM

**Q.** And the IC50 (CDK7 CyclinH; Table 4b, lower part)?
**A.** 3.77 µM

**Q.** What about the IC50 (CDK4-CYCLIND1; [1]) of the same compound?
**A.** 0.0397 µM

**Q.** And the IC50 (CDK1/B; Table 4b, lower part)?
**A.** 8.67 µM

**Q.** What about the IC50 (CDK2-CYCLINA; [2]) of the same compound?
**A.** 3.42 µM

**Q.** For `CS(=O)(=O)N1CCC(Nc2ncc3c(n2)N(C24CC(C2)C4)C(=O)[C@]2(CCNC2=O)C3)CC1` [Example D123, (S)-8-(bicyclo[1.1.1]pentan-1-yl)-2-((1-(methylsulfonyl)piperidin-4-yl)amino)-5,8-dihydro-7H-spiro[pyrido[2,3-d]pyrimidine-6,3′-pyrrolidine]-2′,7-dione], which IC50 (CDK9-CYCLINT1; Table 4b, lower part) is on record?
**A.** 0.0193 µM

**Q.** And the IC50 (CDK7 CyclinH; Table 4b, lower part)?
**A.** 0.88 µM

**Q.** And the IC50 (CDK4-CYCLIND1; [1])?
**A.** < 0.0032 µM

**Q.** And the IC50 (CDK1/B; Table 4b, lower part)?
**A.** 0.022 µM

**Q.** And the IC50 (CDK2-CYCLINA; [2])?
**A.** 0.00419 µM

**Q.** Which results are given for `CC(C)N1CC2(CN(c3ccc(Nc4ncc5c(n4)N(C4CCCC4)C(=O)[C@]4(CCNC4=O)C5)cc3)C2)C1` [Example D102, (S)-8-cyclopentyl-2-((4-(6-isopropyl-2,6-diazaspiro[3.3]heptan-2-yl)phenyl)amino)-5,8-dihydro-7H-spiro[pyrido[2,3-d]pyrimidine-6,3′-pyrrolidine]-2′,7-dione]?
**A.** IC50 (CDK9-CYCLINT1; Table 4b, lower part): < 0.0032 µM; IC50 (CDK7 CyclinH; Table 4b, lower part): 0.642 µM; IC50 (CDK4-CYCLIND1; [1]): < 0.0032 µM; IC50 (CDK1/B; Table 4b, lower part): 0.464 µM; IC50 (CDK2-CYCLINA; [2]): 0.126 µM

**Q.** What does the source list for `CC(C)N1CCN(c2ccc(Nc3ncc4c(n3)N(C3CCCC3)C(=O)[C@@]3(CCNC3=O)C4)cc2F)CC1` [Example D53, (R)-8-cyclopentyl-2-((3-fluoro-4-(4-isopropylpiperazin-1-yl)phenyl)amino) -5,8-dihydro-7H-spiro[pyrido[2,3-d]pyrimidine-6,3′-pyrrolidine]-2′,7-dione]?
**A.** IC50 (CDK2-CYCLINE): 12.1 µM; IC50 (CDK6-CYCLIND3): 0.384 µM; IC50 (CDK4-CYCLIND1; CDK4 (E1/E2), Table 3, purified enantiomers): 0.178 µM; IC50 (CDK2-CYCLINA; Table 3, purified enantiomers, read-out: CDK2-A (E1/E2)): 9.67 µM
